Laboratory results from ChEMBL document CHEMBL4417631, “Oral peptide inhibitors of interleukin-23 receptor and their use to treat inflammatory bowel diseases” (2017).

Columns and labels:
[1] = biological target: T1, Interleukin-23 receptor (Homo sapiens, UniProt Q5VWK5); test: Inhibition of interleukin-23 receptor in human DB cells assessed as reduction in IL-23-stimulated STAT3 phosphorylation incubated for 30 mins by HTRF assay; format: cell-based
T1 sequence (Q5VWK5 whole entry): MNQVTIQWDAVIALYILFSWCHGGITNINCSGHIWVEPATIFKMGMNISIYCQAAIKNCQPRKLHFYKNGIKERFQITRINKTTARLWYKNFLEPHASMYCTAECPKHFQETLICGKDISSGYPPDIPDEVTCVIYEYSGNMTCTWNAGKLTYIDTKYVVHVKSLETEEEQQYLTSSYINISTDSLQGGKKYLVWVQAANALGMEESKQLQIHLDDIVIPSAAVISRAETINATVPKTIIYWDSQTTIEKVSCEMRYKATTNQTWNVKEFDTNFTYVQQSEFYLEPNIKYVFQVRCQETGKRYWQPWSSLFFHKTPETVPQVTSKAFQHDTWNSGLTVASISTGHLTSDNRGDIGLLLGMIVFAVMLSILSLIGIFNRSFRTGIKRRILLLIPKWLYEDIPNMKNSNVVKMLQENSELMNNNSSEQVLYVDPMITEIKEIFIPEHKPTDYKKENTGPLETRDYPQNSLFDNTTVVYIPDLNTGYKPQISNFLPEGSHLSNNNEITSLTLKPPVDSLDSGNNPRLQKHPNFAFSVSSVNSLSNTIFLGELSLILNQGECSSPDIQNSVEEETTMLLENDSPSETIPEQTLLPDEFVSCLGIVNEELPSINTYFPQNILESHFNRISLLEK

[2] = Half life in simulated intestinal fluid at 20 uM by LC-MS/MS analysis; format: ADME
[3] = biological target: T1, Interleukin-23 receptor; test: Inhibition of interleukin-23 binding to human interleukin-23 receptor incubated for 2 hrs by competitive binding ELISA
[4] = Half life in simulated gastric fluid at 20 uM by LC-MS/MS analysis; format: ADME

| SMILES | IC50 [1] | half-life at 20 µM [2] | IC50 [3] | half-life at 20 µM [4] |
| --- | --- | --- | --- | --- |
| CC(=O)NCCCC[C@](C)(NC(=O)[C@H](Cc1ccc2ccccc2c1)NC(=O)[C@H](Cc1ccc(OCCNC(C)=O)cc1)NC(=O)[C@@H](NC(=O)[C@H](CCC(N)=O)NC(=O)[C@H](Cc1c[nH]c2ccccc12)NC(=O)[C@@H](NC(=O)[C@H](CNC(C)=O)NC(=O)[C@@H](NC(C)=O)C(C)(C)S)[C@@H](C)O)C(C)(C)S)C(=O)N[C@@H](CCC(=O)O)C(=O)N[C@@H](CC(N)=O)C(=O)NCC(N)=O | < 10 nM | > 6 h | 10 to 25 nM | > 6 h |
| CC(=O)NCCCC[C@H](NC(=O)C(C)(C)NC(=O)[C@H](Cc1ccc2ccccc2c1)NC(=O)[C@H](Cc1ccc(OCCNC(C)=O)cc1)NC(=O)[C@@H](NC(=O)[C@H](CCC(N)=O)NC(=O)[C@H](Cc1c[nH]c2ccccc12)NC(=O)[C@@H](NC(=O)[C@H](CCC(N)=O)NC(=O)[C@@H](NC(C)=O)C(C)(C)S)[C@@H](C)O)C(C)(C)S)C(=O)N[C@@H](CC(N)=O)C(=O)N[C@@H](CCC(N)=O)C(N)=O | < 10 nM | > 6 h | < 10 nM | > 6 h |
| CC(=O)NCCCC[C@H](NC(=O)C(C)(C)NC(=O)[C@H](Cc1ccc2ccccc2c1)NC(=O)[C@H](Cc1ccc(OCCNC(C)=O)cc1)NC(=O)[C@@H](NC(=O)[C@H](CCC(N)=O)NC(=O)[C@H](Cc1c[nH]c2ccccc12)NC(=O)[C@@H](NC(=O)[C@H](CCC(N)=O)NC(=O)[C@@H](NC(C)=O)C(C)(C)S)[C@@H](C)O)C(C)(C)S)C(=O)N[C@@H](CC(N)=O)C(=O)N[C@@H](CC(N)=O)C(N)=O | < 10 nM | > 6 h | < 10 nM | > 6 h |

Second part, the molecule after the results:

| IC50 [1] | half-life at 20 µM [2] | IC50 [3] | half-life at 20 µM [4] | SMILES |
| --- | --- | --- | --- | --- |
| < 10 nM | > 6 h | < 10 nM | 3 to 6 h | CC(=O)N[C@H]1CCSC[C@@H](C(=O)N[C@@H](Cc2ccc(OCCN)cc2)C(=O)N[C@@H](Cc2c[nH]c3ccccc23)C(=O)N[C@@](C)(CC(C)C)C(=O)N[C@@H](CCC(=O)O)C(=O)N[C@@H](CC(N)=O)C(=O)NCC(N)=O)NC(=O)[C@H](CCC(N)=O)NC(=O)[C@H](Cc2c[nH]c3ccccc23)NC(=O)[C@H]([C@@H](C)O)NC(=O)[C@H](CCC(N)=O)NC1=O |
| < 10 nM | 1 to 2 h | < 10 nM | < 1 h | CC[C@](C)(NC(=O)[C@H](Cc1ccc2ccccc2c1)NC(=O)[C@H](Cc1ccc(OCCN)cc1)NC(=O)[C@@H]1CSCC[C@H](NC(C)=O)C(=O)N[C@@H](CCC(N)=O)C(=O)N[C@@H]([C@@H](C)O)C(=O)N[C@@H](Cc2c[nH]c3ccccc23)C(=O)N[C@@H](CCC(N)=O)C(=O)N1)C(=O)N[C@@H](CCCCNC(C)=O)C(=O)N[C@@H](CC(N)=O)C(=O)NCC(N)=O |
| < 10 nM | < 1 h | 10 to 25 nM | < 1 h | CC(=O)N[C@H]1CCSC[C@@H](C(=O)N[C@@H](Cc2ccc(OCCN)cc2)C(=O)N[C@@H](Cc2c[nH]c3ccccc23)C(=O)N[C@@H](CCC(C)C)C(=O)N[C@@H](CCC(=O)O)C(=O)N[C@@H](CC(N)=O)C(=O)NCC(N)=O)NC(=O)[C@H](CCC(N)=O)NC(=O)[C@H](Cc2c[nH]c3ccccc23)NC(=O)[C@H]([C@@H](C)O)NC(=O)[C@H](CCC(N)=O)NC1=O |
| 10 to 25 nM | > 6 h | 25 to 100 nM | > 6 h | CC(=O)NCCCC[C@H](NC(=O)C(C)(C)NC(=O)[C@H](Cc1cccc2ccccc12)NC(=O)[C@H](Cc1ccc(OCCN)cc1)NC(=O)[C@@H]1CSCC[C@H](NC(C)=O)C(=O)N[C@@H](CCC(N)=O)C(=O)N[C@@H]([C@@H](C)O)C(=O)N[C@@H](Cc2c[nH]c3ccccc23)C(=O)N[C@@H](CCC(N)=O)C(=O)N1)C(=O)N[C@@H](CC(N)=O)C(=O)NCC(N)=O |
